In brackets after ≈: the same amount, converted by molar mass.
Columns and labels:
[1] = system: Fusobacterium necrophorum; assay: Antibacterial activity against Fusobacterium necrophorum assessed as resistant isolates by CLSI agar dilution method; assay type: functional
[2] = system: Bacteroides thetaiotaomicron; assay: Antibacterial activity against beta-lactamase producing Bacteroides thetaiotaomicron by CLSI agar dilution method; assay type: functional
[3] = system: Clostridium paraputrificum; assay: Antibacterial activity against beta-lactamase producing Clostridium paraputrificum assessed as resistant isolates by CLSI agar dilution method; assay type: functional
[4] = system: Fusobacterium nucleatum; assay: Antibacterial activity against Fusobacterium nucleatum by CLSI agar dilution method; assay type: functional
[5] = system: Bacteroides caccae; assay: Antibacterial activity against beta-lactamase producing Bacteroides caccae by CLSI agar dilution method; assay type: functional
[6] = system: Peptoniphilus asaccharolyticus; assay: Antibacterial activity against beta-lactamase producing Peptoniphilus asaccharolyticus assessed as resistant isolates by CLSI agar dilution method; assay type: functional
[7] = system: Bacteroides fragilis; assay: Antibacterial activity against Bacteroides fragilis by CLSI agar dilution method; assay type: functional
[8] = system: Clostridium tertium; assay: Antibacterial activity against beta-lactamase producing Clostridium tertium assessed as susceptible isolates by CLSI agar dilution method; assay type: functional
[9] = system: Fusobacterium necrophorum; assay: Antibacterial activity against Fusobacterium necrophorum assessed as susceptible isolates by CLSI agar dilution method; assay type: functional
[10] = system: Bacteroides fragilis; assay: Antibacterial activity against Bacteroides fragilis assessed as susceptible isolates by CLSI agar dilution method; assay type: functional
[11] = system: Clostridium septicum; assay: Antibacterial activity against beta-lactamase producing Clostridium septicum by CLSI agar dilution method; assay type: functional
[12] = system: Bacteroides uniformis; assay: Antibacterial activity against beta-lactamase producing Bacteroides uniformis assessed as susceptible isolates by CLSI agar dilution method; assay type: functional
[13] = system: Fusobacterium varium; assay: Antibacterial activity against Fusobacterium varium by CLSI agar dilution method; assay type: functional
[14] = system: Prevotella buccae; assay: Antibacterial activity against Prevotella buccae assessed as susceptible isolates by CLSI agar dilution method; assay type: functional, Segatella buccae
[15] = system: Fusobacterium nucleatum; assay: Antibacterial activity against Fusobacterium nucleatum assessed as resistant isolates by CLSI agar dilution method; assay type: functional
[16] = system: Prevotella intermedia; assay: Antibacterial activity against Prevotella intermedia by CLSI agar dilution method; assay type: functional
[17] = system: Bacteroides thetaiotaomicron; assay: Antibacterial activity against beta-lactamase producing Bacteroides thetaiotaomicron assessed as resistant isolates by CLSI agar dilution method; assay type: functional
[18] = system: Clostridium paraputrificum; assay: Antibacterial activity against beta-lactamase producing Clostridium paraputrificum by CLSI agar dilution method; assay type: functional
[19] = system: Prevotella bivia; assay: Antibacterial activity against Prevotella bivia assessed as resistant isolates by CLSI agar dilution method; assay type: functional
[20] = system: Peptoniphilus asaccharolyticus; assay: Antibacterial activity against beta-lactamase producing Peptoniphilus asaccharolyticus by CLSI agar dilution method; assay type: functional
[21] = system: Clostridium septicum; assay: Antibacterial activity against beta-lactamase producing Clostridium septicum assessed as resistant isolates by CLSI agar dilution method; assay type: functional
[22] = system: Fusobacterium nucleatum; assay: Antibacterial activity against Fusobacterium nucleatum assessed as susceptible isolates by CLSI agar dilution method; assay type: functional
[23] = system: Bacteroides caccae; assay: Antibacterial activity against beta-lactamase producing Bacteroides caccae assessed as susceptible isolates by CLSI agar dilution method; assay type: functional
[24] = system: Clostridium tertium; assay: Antibacterial activity against beta-lactamase producing Clostridium tertium by CLSI agar dilution method; assay type: functional
[25] = system: Parvimonas micra; assay: Antibacterial activity against beta-lactamase producing Micromonas micros assessed as resistant isolates by CLSI agar dilution method; assay type: functional
[26] = system: Phocaeicola vulgatus; assay: Antibacterial activity against beta-lactamase producing Bacteroides vulgatus assessed as resistant isolates by CLSI agar dilution method; assay type: functional
[27] = system: Prevotella melaninogenica; assay: Antibacterial activity against Prevotella melaninogenica by CLSI agar dilution method; assay type: functional
[28] = system: Parvimonas micra; assay: Antibacterial activity against beta-lactamase producing Micromonas micros assessed as susceptible isolates by CLSI agar dilution method; assay type: functional
[29] = system: Bacteroides uniformis; assay: Antibacterial activity against beta-lactamase producing Bacteroides uniformis by CLSI agar dilution method; assay type: functional
[30] = system: Bacteroides caccae; assay: Antibacterial activity against beta-lactamase producing Bacteroides caccae assessed as resistant isolates by CLSI agar dilution method; assay type: functional
[31] = system: Finegoldia magna; assay: Antibacterial activity against beta-lactamase producing Finegoldia magna assessed as susceptible isolates by CLSI agar dilution method; assay type: functional
[32] = system: Bacteroides thetaiotaomicron; assay: Antibacterial activity against beta-lactamase producing Bacteroides thetaiotaomicron assessed as susceptible isolates by CLSI agar dilution method; assay type: functional
[33] = system: Fusobacterium mortiferum; assay: Antibacterial activity against Fusobacterium mortiferum by CLSI agar dilution method; assay type: functional
[34] = system: Prevotella buccae; assay: Antibacterial activity against Prevotella buccae by CLSI agar dilution method; assay type: functional; settings: Segatella buccae
[35] = system: Prevotella bivia; assay: Antibacterial activity against Prevotella bivia by CLSI agar dilution method; assay type: functional
[36] = system: Bacteroides uniformis; assay: Antibacterial activity against beta-lactamase producing Bacteroides uniformis assessed as resistant isolates by CLSI agar dilution method; assay type: functional
[37] = system: Prevotella bivia; assay: Antibacterial activity against Prevotella bivia assessed as susceptible isolates by CLSI agar dilution method; assay type: functional
[38] = system: Clostridium perfringens; assay: microbe, parasite or virus in culture; assay type: functional
[39] = system: Phocaeicola vulgatus; assay: Antibacterial activity against beta-lactamase producing Bacteroides vulgatus by CLSI agar dilution method; assay type: functional
[40] = system: Fusobacterium mortiferum; assay: Antibacterial activity against Fusobacterium mortiferum assessed as susceptible isolates by CLSI agar dilution method; assay type: functional
[41] = system: Veillonella parvula; assay: Antibacterial activity against Veillonella parvula by CLSI agar dilution method; assay type: functional
[42] = system: Finegoldia magna; assay: Antibacterial activity against beta-lactamase producing Finegoldia magna by CLSI agar dilution method; assay type: functional
[43] = system: Phocaeicola vulgatus; assay: Antibacterial activity against beta-lactamase producing Bacteroides vulgatus assessed as susceptible isolates by CLSI agar dilution method; assay type: functional
[44] = system: Prevotella melaninogenica; assay: Antibacterial activity against Prevotella melaninogenica assessed as susceptible isolates by CLSI agar dilution method; assay type: functional
[45] = system: Peptostreptococcus anaerobius; assay: Antibacterial activity against beta-lactamase producing Peptostreptococcus anaerobius by CLSI agar dilution method; assay type: functional
[46] = system: Fusobacterium varium; assay: Antibacterial activity against Fusobacterium varium assessed as susceptible isolates by CLSI agar dilution method; assay type: functional
[47] = system: Prevotella intermedia; assay: Antibacterial activity against Prevotella intermedia assessed as resistant isolates by CLSI agar dilution method; assay type: functional
[48] = system: Prevotella melaninogenica; assay: Antibacterial activity against Prevotella melaninogenica assessed as resistant isolates by CLSI agar dilution method; assay type: functional
[49] = system: Parvimonas micra; assay: Antibacterial activity against beta-lactamase producing Micromonas micros by CLSI agar dilution method; assay type: functional
[50] = system: Prevotella intermedia; assay: Antibacterial activity against Prevotella intermedia assessed as susceptible isolates by CLSI agar dilution method; assay type: functional
[51] = system: Peptostreptococcus anaerobius; assay: Antibacterial activity against beta-lactamase producing Peptostreptococcus anaerobius assessed as resistant isolates by CLSI agar dilution method; assay type: functional
[52] = system: Fusobacterium necrophorum; assay: Antibacterial activity against Fusobacterium necrophorum by CLSI agar dilution method; assay type: functional
[53] = system: Peptoniphilus asaccharolyticus; assay: Antibacterial activity against beta-lactamase producing Peptoniphilus asaccharolyticus assessed as susceptible isolates by CLSI agar dilution method; assay type: functional
[54] = system: Fusobacterium mortiferum; assay: Antibacterial activity against Fusobacterium mortiferum assessed as resistant isolates by CLSI agar dilution method; assay type: functional
[55] = system: Bacteroides fragilis; assay: Antibacterial activity against Bacteroides fragilis assessed as resistant isolates by CLSI agar dilution method; assay type: functional
[56] = system: Clostridium paraputrificum; assay: Antibacterial activity against beta-lactamase producing Clostridium paraputrificum assessed as susceptible isolates by CLSI agar dilution method; assay type: functional
[57] = system: Fusobacterium varium; assay: Antibacterial activity against Fusobacterium varium assessed as resistant isolates by CLSI agar dilution method; assay type: functional
[58] = system: Clostridium tertium; assay: Antibacterial activity against beta-lactamase producing Clostridium tertium assessed as resistant isolates by CLSI agar dilution method; assay type: functional
[59] = system: Peptostreptococcus anaerobius; assay: Antibacterial activity against beta-lactamase producing Peptostreptococcus anaerobius assessed as susceptible isolates by CLSI agar dilution method; assay type: functional
[60] = system: Finegoldia magna; assay: Antibacterial activity against beta-lactamase producing Finegoldia magna assessed as resistant isolates by CLSI agar dilution method; assay type: functional
[61] = system: Clostridium septicum; assay: Antibacterial activity against beta-lactamase producing Clostridium septicum assessed as susceptible isolates by CLSI agar dilution method; assay type: functional
[62] = system: Prevotella buccae; assay: Antibacterial activity against Prevotella buccae assessed as resistant isolates by CLSI agar dilution method; assay type: functional, Segatella buccae

## Cc1ncc([N+](=O)[O-])n1CCO [METRONIDAZOLE]
[1]
  Activity: 0%
[2]
  MIC50: 1 µg/mL (≈ 5.84 µM)
  MIC90: 2 µg/mL (≈ 11.7 µM)
[3]
  Activity: 11%
[4]
  MIC50: 0.5 µg/mL (≈ 2.92 µM)
  MIC90: 1 µg/mL (≈ 5.84 µM)
[5]
  MIC50: 1 µg/mL (≈ 5.84 µM)
  MIC90: 4 µg/mL (≈ 23.4 µM)
[6]
  Activity: 9%
[7]
  MIC50: 2 µg/mL (≈ 11.7 µM)
  MIC90: 8 µg/mL (≈ 46.7 µM)
[8]
  Activity: 64%
[9]
  Activity: 100%
[10]
  Activity: 98%
[11]
  MIC50: 8 µg/mL (≈ 46.7 µM)
  MIC90: 16 µg/mL (≈ 93.5 µM)
[12]
  Activity: 100%
[13]
  MIC50: 0.5 µg/mL (≈ 2.92 µM)
  MIC90: 1 µg/mL (≈ 5.84 µM)
[14]
  Activity: 94%
[15]
  Activity: 0%
[16]
  MIC50: 1 µg/mL (≈ 5.84 µM)
  MIC90: 8 µg/mL (≈ 46.7 µM)
[17]
  Activity: 0%
[18]
  MIC50: 8 µg/mL (≈ 46.7 µM)
  MIC90: 16 µg/mL (≈ 93.5 µM)
[19]
  Activity: 0%
[20]
  MIC50: 0.5 µg/mL (≈ 2.92 µM)
  MIC90: 16 µg/mL (≈ 93.5 µM)
[21]
  Activity: 11%
[22]
  Activity: 100%
[23]
  Activity: 100%
[24]
  MIC50: 8 µg/mL (≈ 46.7 µM)
  MIC90: 16 µg/mL (≈ 93.5 µM)
[25]
  Activity: 9%
[26]
  Activity: 0%
[27]
  MIC50: 1 µg/mL (≈ 5.84 µM)
  MIC90: 8 µg/mL (≈ 46.7 µM)
[28]
  Activity: 88%
[29]
  MIC50: 1 µg/mL (≈ 5.84 µM)
  MIC90: 4 µg/mL (≈ 23.4 µM)
[30]
  Activity: 0%
[31]
  Activity: 88%
[32]
  Activity: 100%
[33]
  MIC50: 0.5 µg/mL (≈ 2.92 µM)
  MIC90: 1 µg/mL (≈ 5.84 µM)
[34]
  MIC50: 1 µg/mL (≈ 5.84 µM)
  MIC90: 8 µg/mL (≈ 46.7 µM)
[35]
  MIC50: 1 µg/mL (≈ 5.84 µM)
  MIC90: 8 µg/mL (≈ 46.7 µM)
[36]
  Activity: 0%
[37]
  Activity: 94%
[38]
  MIC50: 8 µg/mL (≈ 46.7 µM)
  MIC90: 16 µg/mL (≈ 93.5 µM)
[39]
  MIC50: 1 µg/mL (≈ 5.84 µM)
  MIC90: 4 µg/mL (≈ 23.4 µM)
[40]
  Activity: 100%
[41]
  MIC: 1 µg/mL (≈ 5.84 µM)
[42]
  MIC50: 0.5 µg/mL (≈ 2.92 µM)
  MIC90: 16 µg/mL (≈ 93.5 µM)
[43]
  Activity: 100%
[44]
  Activity: 94%
[45]
  MIC50: 0.5 µg/mL (≈ 2.92 µM)
  MIC90: 16 µg/mL (≈ 93.5 µM)
[46]
  Activity: 100%
[47]
  Activity: 0%
[48]
  Activity: 0%
[49]
  MIC50: 0.5 µg/mL (≈ 2.92 µM)
  MIC90: 16 µg/mL (≈ 93.5 µM)
[50]
  Activity: 94%
[51]
  Activity: 9%
[52]
  MIC50: 0.5 µg/mL (≈ 2.92 µM)
  MIC90: 1 µg/mL (≈ 5.84 µM)
[53]
  Activity: 88%
[54]
  Activity: 0%
[55]
  Activity: 0%
[56]
  Activity: 64%
[57]
  Activity: 0%
[58]
  Activity: 11%
[59]
  Activity: 88%
[60]
  Activity: 9%
[61]
  Activity: 64%
[62]
  Activity: 0%

— ChEMBL document CHEMBL1671627, “Increasing trends in antimicrobial resistance among clinically important anaerobes and Bacteroides fragilis isolates causing nosocomial infections: emerging resistance to carbapenems” (2008)
